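48-hour exposure; five concentrations; linearly interpolated endpoints. At the GI50, growth is halved.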 The source made the active and inactive calls. Rule as the data show it: active = GI50 up to about 1.1 µM and inactive = higher.
Experiments:
Assay in all cases: inhibition of tumour cell growth, NCI panel, 48 h
[1] = test system: OVCAR-5
[2] = test system: NCI-H226
[3] = test system: HT-29
[4] = test system: A498
[5] = test system: EKVX
[6] = test system: HL-60
[7] = test system: M14
[8] = test system: BT-549
[9] = test system: HOP-92
[10] = test system: SF-295
[11] = test system: Malme-3M
[12] = test system: UO-31
[13] = test system: HOP-62
[14] = test system: MCF7
[15] = test system: SN12C
[16] = test system: SNB-75
[17] = test system: KM12
[18] = test system: SK-MEL-5
[19] = test system: U-251

Structure (SMILES)	GI50 [1]	GI50 [2]	GI50 [3]	GI50 [4]	GI50 [5]	GI50 [6]	GI50 [7]	GI50 [8]	GI50 [9]	GI50 [10]	GI50 [11]	GI50 [12]	GI50 [13]	GI50 [14]	GI50 [15]	GI50 [16]	GI50 [17]	GI50 [18]	GI50 [19]
CCOc1cc(NC(C)=O)ccc1C(=O)NN1C(=O)/C(=C/c2ccco2)N=C1c1ccccc1	> 100 µM (inactive)	> 100 µM (inactive)	> 100 µM (inactive)	> 100 µM (inactive)	74.3 µM (inactive)	> 100 µM (inactive)	> 100 µM (inactive)	> 100 µM (inactive)	36.2 µM (inactive)	> 100 µM (inactive)	> 100 µM (inactive)	61.7 µM (inactive)	> 100 µM (inactive)	> 100 µM (inactive)	> 100 µM (inactive)	> 100 µM (inactive)	> 100 µM (inactive)	54.6 µM (inactive)	–
COc1ccc(N2C(=O)CSC2c2cc3cc(Br)ccc3nc2Cl)cc1 (stereo unspecified)	> 50 µM (inactive)	> 50 µM (inactive)	> 50 µM (inactive)	> 50 µM (inactive)	> 50 µM (inactive)	> 50 µM (inactive)	38.5 µM (inactive)	> 50 µM (inactive)	> 50 µM (inactive)	19.9 µM (inactive)	> 50 µM (inactive)	> 50 µM (inactive)	> 50 µM (inactive)	31.7 µM (inactive)	> 50 µM (inactive)	> 50 µM (inactive)	20.9 µM (inactive)	37.4 µM (inactive)	–
Cc1nc(C)c(N2CCN(S(N)(=O)=O)CC2)c(O)n1	–	> 100 µM (inactive)	> 100 µM (inactive)	> 100 µM (inactive)	> 100 µM (inactive)	> 100 µM (inactive)	> 100 µM (inactive)	> 100 µM (inactive)	> 100 µM (inactive)	> 100 µM (inactive)	> 100 µM (inactive)	> 100 µM (inactive)	> 100 µM (inactive)	> 100 µM (inactive)	> 100 µM (inactive)	0.101 µM (active)	> 100 µM (inactive)	> 100 µM (inactive)	> 100 µM (inactive)
CC(C)CCCC(C)[C@H]1CC[C@H]2N/C(=N/Cc3ccccc3)CCC[C@]12C (stereo partly specified)	–	2.07 µM (inactive)	1.28 µM (inactive)	1.95 µM (inactive)	–	2.11 µM (inactive)	2.32 µM (inactive)	2.72 µM (inactive)	2.09 µM (inactive)	2.03 µM (inactive)	1.97 µM (inactive)	2.59 µM (inactive)	2.46 µM (inactive)	1.71 µM (inactive)	1.84 µM (inactive)	1.83 µM (inactive)	1.88 µM (inactive)	1.58 µM (inactive)	1.78 µM (inactive)
CN(C)CCCNc1cnc2cc3ccccc3cc2n1	18.6 µM (inactive)	16.8 µM (inactive)	15 µM (inactive)	17.5 µM (inactive)	28 µM (inactive)	32.2 µM (inactive)	21.4 µM (inactive)	15.3 µM (inactive)	23.5 µM (inactive)	20.7 µM (inactive)	14.1 µM (inactive)	–	26.2 µM (inactive)	21.3 µM (inactive)	33.1 µM (inactive)	23.7 µM (inactive)	20 µM (inactive)	19.6 µM (inactive)	36.5 µM (inactive)
CCOP(=O)(Nc1ccc2oc(=O)c3ccccc3c2c1)OCC	80.4 µM (inactive)	41 µM (inactive)	63.2 µM (inactive)	27.5 µM (inactive)	46 µM (inactive)	19.4 µM (inactive)	> 100 µM (inactive)	15.2 µM (inactive)	24.6 µM (inactive)	> 100 µM (inactive)	> 100 µM (inactive)	–	62.1 µM (inactive)	14.2 µM (inactive)	> 100 µM (inactive)	66.2 µM (inactive)	–	28.6 µM (inactive)	75.2 µM (inactive)

Reference: ChEMBL document CHEMBL1201862, “PubChem BioAssay data set” (2004)
